These results are taken from US20080090896A1, “Strontium-Based Treatment Of Otosclerosis” (priority 2006, published 2008).

The experiment has as its system hearing loss associated with otosclerosis. As to conditions: hearing loss patients; 2 mg strontium ranelate daily for 6 months; symptoms measured monthly. How it is done:
Hearing Loss. Hearing loss patients generally experience progressive loss of hearing.
The following populations having the symptom stated are treated with a dosing schedule of 2 mg strontium ranelate daily for 6 months.
All symptoms will be measured monthly. All improvements will be recorded and assessed.

As for `N#Cc1c(N(CC(=O)[O-])CC(=O)[O-])sc(C(=O)[O-])c1CC(=O)[O-].[Sr+2].[Sr+2]` [strontium ranelate], the “hearing (gains or cessation of the progression of hearing loss)” value is reported as “some hearing gains”.
